Reference: ChEMBL document CHEMBL5137001, “Examination of multiple Trypanosoma cruzi targets in a new drug discovery approach for Chagas disease” (Bioorg Med Chem, 2022)
Values belong to the compound of their own block, whether it stands above or below them.

How the values were obtained:
[1] = target: T1, Triosephosphate isomerase, glycosomal (Trypanosoma cruzi, UniProt P52270); test: Inhibition of recombinant Trypanosoma cruzi TIM using glyceraldehyde 3-phosphate as substrate
[2] = target: T2, Bifunctional dihydrofolate reductase-thymidylate synthase (Trypanosoma cruzi, UniProt Q27793); test: Inhibition of recombinant Trypanosoma cruzi DHFR-TS assessed as inhibition constant
T2 sequence (Q27793 whole entry): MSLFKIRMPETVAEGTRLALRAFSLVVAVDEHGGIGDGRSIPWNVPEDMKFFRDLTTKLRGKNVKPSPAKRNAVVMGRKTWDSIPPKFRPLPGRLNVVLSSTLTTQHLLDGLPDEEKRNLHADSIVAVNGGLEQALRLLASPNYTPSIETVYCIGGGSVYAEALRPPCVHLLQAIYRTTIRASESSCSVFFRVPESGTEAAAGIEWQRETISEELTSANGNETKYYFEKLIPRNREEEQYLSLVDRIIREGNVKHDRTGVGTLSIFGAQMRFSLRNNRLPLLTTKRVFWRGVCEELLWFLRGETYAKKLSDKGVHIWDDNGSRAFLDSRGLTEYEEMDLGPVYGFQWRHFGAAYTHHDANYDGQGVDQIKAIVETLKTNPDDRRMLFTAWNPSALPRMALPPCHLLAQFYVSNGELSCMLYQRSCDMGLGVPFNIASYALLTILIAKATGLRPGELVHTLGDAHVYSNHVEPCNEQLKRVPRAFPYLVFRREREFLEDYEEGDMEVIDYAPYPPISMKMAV

[3] = target: T1, Triosephosphate isomerase, glycosomal; test: Inhibition of Trypanosoma cruzi TIM expressed in Escherichia coli using glyceraldehyde 3-phosphate as substrate preincubated for 2 hrs in presence of NADH/alphaGDPH by spectrophotometry
[4] = target: T1, Triosephosphate isomerase, glycosomal; test: Inhibition of Trypanosoma cruzi TIM
[5] = target: T1, Triosephosphate isomerase, glycosomal; test: Inhibition of Trypanosoma cruzi TIM expressed in Escherichia coli using glyceraldehyde 3-phosphate as substrate in presence of NADH/alphaGDPH measured after 2 hrs by spectrophotometry
Cruzipain [6] = target: T3, Cruzipain (Trypanosoma cruzi, UniProt P25779); test: Inhibition of Trypanosoma cruzi Cruzaine using Z-Phe-Arg-AMC as substrate preincubated for 15 mins measured for 10 mins by […]
T3 sequence (P25779 whole entry): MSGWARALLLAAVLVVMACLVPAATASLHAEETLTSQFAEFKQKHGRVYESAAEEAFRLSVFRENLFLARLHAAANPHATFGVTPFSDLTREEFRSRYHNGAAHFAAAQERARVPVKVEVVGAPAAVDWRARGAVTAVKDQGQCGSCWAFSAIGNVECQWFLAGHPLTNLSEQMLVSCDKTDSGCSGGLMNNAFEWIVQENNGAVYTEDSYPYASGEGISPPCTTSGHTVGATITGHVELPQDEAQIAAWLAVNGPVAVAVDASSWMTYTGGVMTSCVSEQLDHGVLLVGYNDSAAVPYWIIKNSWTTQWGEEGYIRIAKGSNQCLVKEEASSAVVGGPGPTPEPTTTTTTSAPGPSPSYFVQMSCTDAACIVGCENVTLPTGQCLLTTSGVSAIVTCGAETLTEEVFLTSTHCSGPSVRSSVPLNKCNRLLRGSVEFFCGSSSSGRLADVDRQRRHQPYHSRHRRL

Cruzipain [7] = target: T3, Cruzipain; test: Inhibition of Trypanosoma cruzi Cruzaine
[8] = Inhibition of Trypanosoma cruzi DHODH assessed as inhibition constant measured for 5 mins by spectrophotometry
[9] = target: Sterol 14-alpha demethylase (Trypanosoma cruzi (strain CL Brener), UniProt Q7Z1V1); test: Displacement of [3H]-Eubricol from C-terminal His-tagged full-length Trypanosoma cruzi Tulahuen strain CYP51 expressed in Escherichia coli HMS174(DE3) assessed as dissociation constant preincubated for 5 mins measured after 60 mins by enzymatic assay
Sterol 14-alpha demethylase, sequence (Q7Z1V1 whole entry): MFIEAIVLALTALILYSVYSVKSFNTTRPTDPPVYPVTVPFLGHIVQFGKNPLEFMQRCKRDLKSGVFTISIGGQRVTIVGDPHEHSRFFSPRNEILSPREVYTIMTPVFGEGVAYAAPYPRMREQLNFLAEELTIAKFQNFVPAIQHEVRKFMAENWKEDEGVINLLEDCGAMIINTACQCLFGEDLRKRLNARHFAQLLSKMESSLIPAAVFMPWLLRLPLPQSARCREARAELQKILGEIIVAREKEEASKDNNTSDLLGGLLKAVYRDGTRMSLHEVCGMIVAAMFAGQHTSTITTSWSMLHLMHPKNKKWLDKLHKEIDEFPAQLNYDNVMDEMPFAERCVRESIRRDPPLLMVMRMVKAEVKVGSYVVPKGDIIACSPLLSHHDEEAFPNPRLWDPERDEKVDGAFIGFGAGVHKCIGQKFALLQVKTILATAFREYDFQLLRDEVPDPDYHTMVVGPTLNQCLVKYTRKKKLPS

Trypanothione reductase [10] = target: T4, Trypanothione reductase (Trypanosoma cruzi, UniProt P28593); test: Inhibition of Trypanosoma cruzi TR assessed as inhibition constant
T4 sequence (P28593 whole entry): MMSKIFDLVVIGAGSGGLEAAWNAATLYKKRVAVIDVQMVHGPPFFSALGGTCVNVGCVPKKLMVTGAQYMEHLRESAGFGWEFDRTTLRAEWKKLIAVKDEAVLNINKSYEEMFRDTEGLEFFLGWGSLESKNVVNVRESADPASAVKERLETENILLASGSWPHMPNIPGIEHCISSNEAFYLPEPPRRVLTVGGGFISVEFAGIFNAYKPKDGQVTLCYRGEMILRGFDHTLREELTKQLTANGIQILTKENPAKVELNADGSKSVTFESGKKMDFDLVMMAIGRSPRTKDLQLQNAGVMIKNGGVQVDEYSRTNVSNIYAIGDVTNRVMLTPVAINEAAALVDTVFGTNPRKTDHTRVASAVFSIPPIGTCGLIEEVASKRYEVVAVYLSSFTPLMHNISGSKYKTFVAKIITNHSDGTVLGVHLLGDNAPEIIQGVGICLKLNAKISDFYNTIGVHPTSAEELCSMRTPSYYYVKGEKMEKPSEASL

Trypanothione reductase [11] = target: T4, Trypanothione reductase; test: Inhibition of Trypanosoma cruzi TR assessed as inhibition constant in presence of NADPH
Cruzipain [12] = target: T3, Cruzipain; test: Inhibition of Cruzaine derived from epimastigotes of Trypanosoma cruzi Tul2 strain using Z-FR-AMC as substrate assessed as release of 7-amino-4-methylcoumarin by fluorimetry
[13] = target: T2, Bifunctional dihydrofolate reductase-thymidylate synthase; test: Inhibition of Trypanosoma cruzi DHFR-TS assessed as inhibition constant using DHF as substrate in presence of NADPH by spectrophotometry
[14] = Inhibition of Trypanosoma cruzi PTR1 using folic acid as substrate in presence of NADPH by spectrophotometry
[15] = target: T2, Bifunctional dihydrofolate reductase-thymidylate synthase; test: Inhibition of Trypanosoma cruzi DHFR-TS in presence of NADPH by spectrophotometry

T1 sequence (P52270 whole entry): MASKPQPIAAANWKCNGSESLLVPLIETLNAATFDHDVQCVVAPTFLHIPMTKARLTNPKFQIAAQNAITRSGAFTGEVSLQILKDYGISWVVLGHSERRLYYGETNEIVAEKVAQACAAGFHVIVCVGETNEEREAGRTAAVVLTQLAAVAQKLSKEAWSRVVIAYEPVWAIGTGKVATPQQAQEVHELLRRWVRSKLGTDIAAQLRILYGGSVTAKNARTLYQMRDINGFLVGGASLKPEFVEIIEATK

IC50 [1]: 33 µM
Compound: O=S(=O)(O)CCCSc1nc2ccccc2s1

Ki [2]: 0.023 µM
Compound: CC(C)Oc1cccc(Cc2cnc(N)nc2N)c1

IC50 [1]: 8 µM
Compound: Cc1ccc2nc(-c3ccc4nc(-c5ccc(N)cc5)sc4c3)sc2c1S(=O)(=O)O

IC50 [3]: 26 µM
Compound: [O-][NH+]1c2ccc(O)cc2[NH+]([O-])c2cc(Cl)c(Cl)cc21 (configuration not stated)

IC50 [4]: 3 µM
Compound: O=C(/C=C/C=C/c1ccco1)/C=C/C=C/c1ccco1

IC50 [5]: 11 µM
Compound: COc1ccc(-c2c/c(=[S+]/CC(C)=O)ss2)cc1

Compound: O=C1/C(=C/C=C/c2ccco2)CCC/C1=C\C=C\c1ccco1
IC50 (Cruzipain [6]): 37 µM

IC50 (Cruzipain [7]): 20 µM
Compound: CCOC(=O)/C=C/C(=O)[C@H](CC(C)C)NC(=O)[C@@H](CC(=O)c1ccccc1)Cc1ccccc1

Ki [8]: 0.02 µM
Compound: O=C1NC(=O)C(CCc2ccc3cc(C(=O)O)ccc3c2)C(C(=O)O)N1 (configuration not stated)

Kd [9]: 0.024 µM
Compound: OC(Cn1cnnn1)(c1ccc(F)cc1F)C(F)(F)c1ccc(-c2ccc(OCC(F)(F)F)cn2)cn1 (configuration not stated)

IC50 [4]: 3 µM
Compound: O=C(CSc1nc2ccccc2[nH]1)Nc1ncc([N+](=O)[O-])s1

Ki [2]: 0.03 µM
Compound: Nc1ncc(Cc2ccc(Oc3ccccc3)cc2)c(N)n1

Ki (Trypanothione reductase [10]): 19 µM
Compound: CC(C)CC(=O)c1ccc2c(c1)[n+]([O-])c(C(=O)C(C)C)c(C(F)(F)F)[n+]2[O-]

Compound: CN1CCN(CCn2ccc3cc(-c4ncc(C5(N6CCCC6)CCCCC5)s4)ccc32)CC1
Ki (Trypanothione reductase [10]): 3.8 µM

IC50 (Cruzipain [7]): 0.6 µM
Compound: COc1ccc(NC(=O)COC(=O)C(CC(C)C)N2C(=O)C(Cl)=C(Cl)C2=O)cc1 (configuration not stated)

Ki (Trypanothione reductase [11]): 1.1 µM
Compound: O=C1C(Br)=C(Oc2ccc3ccccc3c2)C(=O)c2ccccc21

Compound: c1ccc(-c2sc(C3(N4CCCC4)CCCCC3)cc2-c2ccc3cc[nH]c3c2)cc1
Ki (Trypanothione reductase [10]): 10 µM

Ki (Trypanothione reductase [11]): 6 µM
Compound: Cc1ccc(C)c(OC2=CC(=O)c3ccncc3C2=O)c1

IC50 (Cruzipain [12]): 30.3 µM
Compound: CC(C)CC(NC(=O)c1ccc(-c2ccccc2)o1)C(=O)NC1(C#N)CC1 (configuration not stated)

Ki [13]: 0.0066 µM
Compound: COc1cc(NCc2ccc3nc(N)ncc3c2C)cc(OC)c1OC

IC50 [15]: 0.11 µM
Compound: CN(Cc1cnc2nc(N)nc(N)c2n1)c1ccc(C(=O)N[C@@H](CCC(=O)O)C(=O)O)cc1 [METHOTREXATE]
IC50 [14]: 0.038 nM
